# From patent US5631259A, “Cycloalkltriols containing cyclic substituents, processes and intermediate products for their preparation and their use as antiviral and antiparasitic agents” (priority 1991, dated 1997)
# Legend:
# in vitro = conditions: human, hela cells
# Pneumocystis carinii = Pneumocystis carinii pneumonia in dexamethasone-treated rats, bronchial lavage evaluated with Pneumocystis carinii test kit; assay type: in vivo, Spraque-Dawley rats; conditions: Monday, Wednesday and Friday for two weeks
# Description: Pneumocystis carinii--Description of the experiment and results
# Spraque-Dawley rats, 200-220 g, were collected into groups of 10 animals and treated with dexamethasone 1.5 mg/ml; of loxacin 0.2 mg/rat via the drinking water in order to induce the outbreak of pneumonia caused by Pneumocystis carinii.
# After 7 weeks, the dexamethasone treatment was stopped and the preparation treatment was started.
# Treatment was carried out every Monday, Wednesday and Friday for two weeks as follows:
# 2. pentamidine 20 mg/kg i.m.
# 3. pentamidine 40 mg/kg i.m.
# After the two treatment weeks, a bronchial lavage was performed on the animals under Nembutal anesthesia.
# The bronchial suspensions obtained were worked up and evaluated using the Pneumocystis carinii test kit from Progen Biotechnik GmbH, Heidelberg, Germany.
compound,measurement,setting,value
"Nc1ncnc2c1ncn2[C@@H]1C[C@H](O)[C@@H](O)[C@H]1O (racemic) [Example 3.1.1, 9-[(1RS,2SR,3RS,4SR)-2,3,4-trihydroxycyclo-pent-1-yl]adenine]",MNTC,in vitro,> 400 µg/mL
"O=c1c(Cl)c(Cl)cnn1[C@@H]1C[C@H](O)[C@@H](O)[C@H]1O (racemic) [Example 3.10.1, 4,5-dichloro-2-[(1RS,2SR,3RS,4SR)-2,3,4-trihydroxy-cyclopent-1-yl]pyridazin-3(2H)-one]",Reduction (%),Pneumocystis carinii; 20 mg/kg oral,22.9%
"CNc1ncnc2c1ncn2[C@H]1C[C@@H](O)[C@H](O)[C@@H]1O (relative stereo) [Example 3.3, N^6-methyl-9-[(1RS,2SR,3RS,4SR)-trihydroxy-cyclopent-1-yl]adenine]",MNTC,in vitro,> 400 µg/mL
N=C(N)c1ccc(OCCCCCOc2ccc(C(=N)N)cc2)cc1 [pentamidine],Reduction (%),Pneumocystis carinii; 20 mg/kg i.m.,37.7%
same,Reduction (%),Pneumocystis carinii; 40 mg/kg i.m.,16.9%
